Test results as given in patent EP3020415A1, “Thiol compounds for use in bacterial infections” (Université de Fribourg, priority 2014, dated 2016).
Values joined by “and” are separate entries in the source; they are usually repeats but may differ in a detail not shown here. Equal entries are not always repeated. Where two headings read alike, the source gives them in different places. Values belong to the compound of their own block, whether it stands above or below them.

Legend:
K. pneumoniae VIM-4 = test: MIC of carbapenems with or without DMPS; assay type: cell-based; conditions: Zn 5mg/L
Experimental: (§1) DMPS was evaluated as inhibitor of MBLs using a panel of strains producing the most clinically significant carbapenemases of the metallo-enzyme group. Minimum inhibitory concentrations (MICs) of carbapenems were determined in-vitro with strains (reference and clinical) producing main types of class B carbapenemases which are IMP, VIM, NDM, GIM and SPM with or without DMPS at various concentrations. […] The studied strains were clinical isolates (to mirror multidrug resistance in clinical isolates) for which a precise ß-lactamase gene content is known (Table 1). The strains were NDM, VIM-, IMP, SPM and GIM and producers as well as control of a non-MBL producer (OXA-48). The selected concentration of DMPS was 1-fold, […] and 30-fold (3 mM) that of the human peak serum concentration after a single IV dose of DMPS (Aposhian,1983).
(§2) A 100 mM DMPS stock solution (Sigma Aldrich, France) (pH 5.0) was prepared in 0.2 M NaOH as recommended (Maiorino et al. 1990) and pH was neutralized to pH 7.0 with NaHCO3 Na2Ca-EDTA (Sigma Aldrich, France) dissolved in water.

P. aeruginosa IMP-13 = test: MIC of carbapenems with or without DMPS; assay type: cell-based
Experimental: as §1, §2

K. pneumoniae NDM-1 = test: MIC of carbapenems with or without DMPS; assay type: cell-based; conditions: Zn 5mg/L
Experimental: as §1, §2

A. baumannii NDM-1 = test: MIC of carbapenems with or without DMPS; assay type: cell-based
Experimental: as §1, §2

P. aeruginosa VIM-1 = test: MIC of carbapenems with or without DMPS; assay type: cell-based
Experimental: as §1, §2

E. coli NDM-1 = test: MIC of carbapenems with or without DMPS; assay type: cell-based; conditions: Zn 5mg/L
Experimental: as §1, §2

P. aeruginosa VIM-2 = test: MIC of carbapenems with or without DMPS; assay type: cell-based; conditions: Zn 5mg/L
Experimental: as §1, §2

K. pneumoniae IMP-4 = test: MIC of carbapenems with or without DMPS; assay type: cell-based; conditions: Zn 5mg/L
Experimental: as §1, §2

E. cloacae GIM-1 = test: MIC of carbapenems with or without DMPS; assay type: cell-based; conditions: Zn 5mg/L
Experimental: as §1, §2

P. aeruginosa GIM-1 = test: MIC of carbapenems with or without DMPS; assay type: cell-based; conditions: Zn 5mg/L
Experimental: as §1, §2

K. pneumoniae IMP-8 = test: MIC of carbapenems with or without DMPS; assay type: cell-based; conditions: Zn 5mg/L
Experimental: as §1, §2

E. coli NDM-4 = test: MIC of carbapenems with or without DMPS; assay type: cell-based; conditions: Zn 5mg/L
Experimental: as §1, §2

C. freundii VIM-2 = test: MIC of carbapenems with or without DMPS; assay type: cell-based; conditions: Zn 5mg/L
Experimental: as §1, §2

E. coli NDM-5 = test: MIC of carbapenems with or without DMPS; assay type: cell-based; conditions: Zn 5mg/L
Experimental: as §1, §2

P. aeruginosa NDM1 = test: MIC of carbapenems with or without DMPS; assay type: cell-based; conditions: carbapenem without DMPS, Zn 5mg/L
Experimental: as §1, §2

K. pneumoniae OXA-48 = test: MIC of carbapenems with or without DMPS (non-MBL control); assay type: cell-based; conditions: K. pneumoniae OXA-48 (control), carbapenem without DMPS, Zn 5mg/L
Experimental: as §1, §2

P. putida VIM-2 = test: MIC of carbapenems with or without DMPS; assay type: cell-based; conditions: Pseudomonas putida, VIM2
Experimental: as §1, §2

P. aeruginosa SPM1 = test: MIC of carbapenems with or without DMPS; assay type: cell-based; conditions: Pseudomonas aeruginosa, carbapenem without DMPS, Zn 5mg/L
Experimental: as §1, §2

A. baumannii IMP-4 = test: MIC of carbapenems with or without DMPS; assay type: cell-based; conditions: Acinetobacter baumannii, IMP4, carbapenem without DMPS, Zn 5mg/L
Experimental: as §1, §2

KPC-3 = KPC-3 (Klebsiella pneumoniae, UniProt Q9F663, H272Y); test: In-vitro inhibition of purified enzyme, non-metallo-enzyme negative control
[1] = tested on: E. coli TOP10 pCR2.1-(PNDM-1-blaNDM-1-bleMBL); test: Preliminary MIC of imipenem with DMPS, broth microdilution; assay type: cell-based; conditions: MIC values of imipenem; 0 to 30 mM of DMPS; zinc-complemented M9CA medium; data not shown
VIM-1 = VIM-1 (Pseudomonas aeruginosa, UniProt A0A0F7KYQ8); test: biochemical
NDM-4 = NDM-4 (Escherichia coli, UniProt H6WZS9); test: In-vitro inhibition of purified metallo-ß-lactamase, UV spectrophotometry
IMP-1 = IMP-1 (Serratia marcescens, UniProt P52699); test: biochemical
[2] = in vivo, cited from earlier work
NDM-1 = NDM-1 (Klebsiella pneumoniae, UniProt C7C422); test: biochemical

MIC (K. pneumoniae VIM-4; carbapenem without DMPS): 32 µg/mL
MIC (P. aeruginosa IMP-13; P. aeruginosa IMP-13, carbapenem without DMPS, Zn 5mg/L): 64 µg/mL
MIC (K. pneumoniae NDM-1; carbapenem without DMPS): 64 µg/mL
MIC (A. baumannii NDM-1; A. baumannii NDM-1, carbapenem without DMPS, Zn 5mg/L): 256 µg/mL
MIC (P. aeruginosa VIM-1; P. aeruginosa VIM-1, carbapenem without DMPS, Zn 5mg/L): 256 µg/mL
MIC (E. coli NDM-1; carbapenem without DMPS): 32 µg/mL and 16 µg/mL
MIC (P. aeruginosa VIM-2; carbapenem without DMPS): 1,024 µg/ml
MIC (K. pneumoniae IMP-4; carbapenem without DMPS): 16 µg/mL
MIC (E. cloacae GIM-1; carbapenem without DMPS): 16 µg/mL
MIC (P. aeruginosa GIM-1; carbapenem without DMPS): 1,024 µg/ml
MIC (K. pneumoniae IMP-8; carbapenem without DMPS): 2 µg/mL
MIC (E. coli NDM-4; carbapenem without DMPS): 64 µg/mL
MIC (C. freundii VIM-2; carbapenem without DMPS): 0.06 µg/mL
MIC (E. coli NDM-5; carbapenem without DMPS): 64 µg/mL
MIC (P. aeruginosa NDM1): 256 µg/mL
MIC (K. pneumoniae OXA-48): 32 µg/mL
SMILES: C[C@@H](O)[C@H]1C(=O)N2C(C(=O)O)=C(S[C@@H]3CN[C@H](C(=O)N(C)C)C3)[C@H](C)[C@H]12 [MEM, meropenem]

SMILES: C[C@@H](O)[C@H]1C(=O)N2C(C(=O)O)=C(SCCN=CN)C[C@H]12 [IPM, imipenem]
MIC (K. pneumoniae VIM-4; Klebsiella pneumoniae, VIM4, carbapenem without DMPS, read-out: MIC): 64 µg/mL
MIC (P. aeruginosa IMP-13; Pseudomonas aeruginosa, IMP13): 128 µg/mL
MIC (K. pneumoniae NDM-1; Klebsiella pneumoniae, NDM1, carbapenem without DMPS, read-out: MIC): 64 µg/mL
MIC (A. baumannii NDM-1; Acinetobacter baumannii, NDM1): 128 µg/mL
MIC (P. putida VIM-2): 128 µg/mL
MIC (P. aeruginosa VIM-1; Pseudomonas aeruginosa, VIM1): 128 µg/mL
MIC (E. coli NDM-1; Escherichia coli, NDM1, carbapenem without DMPS, read-out: MIC): 8 µg/mL
MIC (P. aeruginosa SPM1): 1020 µg/mL
MIC (A. baumannii IMP-4): 64 µg/mL
MIC (P. aeruginosa VIM-2; Pseudomonas aeruginosa, VIM2, carbapenem without DMPS, read-out: MIC): 1020 µg/mL
MIC (K. pneumoniae IMP-4; Klebsiella pneumoniae, IMP4, carbapenem without DMPS, read-out: MIC): 16 µg/mL
MIC (E. cloacae GIM-1; Enterobacter cloacae, GIM1, carbapenem without DMPS, read-out: MIC): 8 µg/mL
MIC (P. aeruginosa GIM-1; Pseudomonas aeruginosa, GIM1, carbapenem without DMPS, read-out: MIC): > 1020 µg/mL
MIC (K. pneumoniae IMP-8; Klebsiella pneumoniae, IMP8, carbapenem without DMPS, read-out: MIC): 8 µg/mL
MIC (E. coli NDM-4; Escherichia coli, NDM4, carbapenem without DMPS, read-out: MIC): 64 µg/mL
MIC (C. freundii VIM-2; Citrobacter freundii, VIM2, carbapenem without DMPS, read-out: MIC): 2 µg/mL
MIC (E. coli NDM-5; Escherichia coli, NDM5, carbapenem without DMPS, read-out: MIC): 64 µg/mL
MIC (P. aeruginosa NDM1; Pseudomonas aeruginosa, read-out: MIC): 1020 µg/mL
MIC (K. pneumoniae OXA-48; Klebsiella pneumoniae, OXA48, read-out: MIC): 32 µg/mL

SMILES: O=S(=O)([O-])CC(S)CS.[Na+] (racemic) [DMPS]
IC50 (KPC-3): > 10000 µM
maximal inhibition efficiency (DMPS concentration) [1]: 50 mM
IC50 (VIM-1): 180 µM
IC50 (NDM-4): 110 µM
IC50 (IMP-1): 70 µM
serum concentration ([2]; iv): ca. 110 µM
elimination [2]: mostly eliminated by urines
IC50 (NDM-1): 80 µM
